Earlier results as cited in patent US11058138B2, “Composition for calcium supplementation” (ABIOGEN PHARMA S.P.A., priority 2017, dated 2021).

Settings: versus calcium carbonate

O=C([O-])CC(O)(CC(=O)[O-])C(=O)[O-].O=C([O-])CC(O)(CC(=O)[O-])C(=O)[O-].[Ca+2].[Ca+2].[Ca+2] [calcium citrate]
Bioavailability higher than that of calcium carbonate: 20-30%
